Reference: publication PMC12381739, “Druglike Molecular Degraders of the Oncogenic RNA-Binding Protein HuR” (JACS Au, 2025)

Experiments:
[1] = tested on: MDA-MB-231 spheroids; test: 3D spheroid growth model, MDA-MB-231; assay type: cell-based, human; settings: 10 nM
Protocol: (§1) MDA-MB-231 and MCF-7 breast cancer cells were cultured in standard tissue culture plates using RPMI or DMEM media supplemented with 10% fetal bovine serum (FBS) and 1% penicillin–streptomycin until they reached approximately 80% confluency. Cells were washed with PBS and dissociated using 0.25% Trypsin-EDTA, followed by neutralization with complete medium. Viability was assessed via trypan blue exclusion, ensuring >90% viable cells. For spheroid formation, cells were seeded into ultralow attachment 96-well plates at a density of 5000 cells/well in 200 μL of complete medium. Plates were centrifuged at 1000 rpm for 5 min to promote aggregation and incubated at 37 °C in a humidified 5% CO2 atmosphere. Spheroid formation was monitored daily using an inverted microscope. Media exchanges or treatment additions were performed by carefully aspirating 100 μL of medium from each well and replacing it with an equal volume of fresh or treatment-containing medium. Differences in spheroid characteristics between the two cell lines were noted: MCF-7 cells, being epithelial and E-cadherin positive, formed compact, uniform spheroids at lower seeding densities (1000–5000 cells/well) over 3–5 days, whereas MDA-MB-231 cells, which lack E-cadherin, required higher densities (5000–10,000 cells/well) and formed looser aggregates typically within 2–4 days. All experiments were performed in duplicates. Surface area was calculated using Image View’s multipoint connection function.

[2] = tested on: MCF-10A; test: Crystal violet viability assay in MCF-10A cells; assay type: cell-based; settings: 10 nM or 10 μM, 48 h
From the text: (§2) To elucidate the decrease in cell viability observed, we evaluated the potential increase in apoptosis using the […] Caspase-Glo 3/7 assay system. Upon cell lysis, active caspases cleave a luminogenic substrate, releasing aminoluciferin, which is subsequently converted to light by luciferase. The intensity of the signal directly correlates with the levels of apoptosis. […] This destabilization reduces the levels of proteins essential for cancer cell survival, resulting in cumulative cellular stress, diminished proliferation, and enhanced cytotoxicity. […] This enhanced effect is likely due to the catalytic nature of the molecular glue degraders, offering promising potential for cancer treatment.
RNF-126 recruiter for 48 h, measured using crystal violet. (B) Viability assay of MCF-10A cells
126 recruiter for 48 h, measured using crystal violet.
(1 picture or pasted object on this page, not shown here)

[3] = tested on: Bcl2; test: Bcl2 protein expression by western blot in MDA-MB-231 cells; assay type: cell-based, human; settings: MDA-MB-231, 10 nM, 24 h
Protocol: (§3) The hook effect was again observed in Bcl2 protein expression, underscoring the functional link between HuR and Bcl2.
(§4) MDA-MB-231 and MCF-7 cells were seeded in 6-well plates at approximately 60% confluency in complete growth medium and treated with synthesized compounds at the indicated concentrations or with vehicle for 24 h. Total protein was extracted using RIPA cell lysis buffer (BioPrep) containing a protease inhibitor, and protein concentration was measured using the BCA protein assay (Sigma-Aldrich) according to the manufacturer’s protocol. Approximately 30 μg of total protein were resolved on a 12% SDS-acrylamide gel and transferred to a PVDF membrane (Immobilon FL transfer membrane; Merck). The membrane was washed with 1× Tris-buffered saline (TBS) containing 0.1% (v/v) Tween-20 (TBST; Tris-base, pH 7.6, NaCl, and Tween-20) and blocked in 1× TBST containing 5% (w/v) BSA for 2 h at room temperature. […] The fold change in the expression of the target proteins (HuR or Bcl2) was calculated by normalizing the band intensity to the Vinculin band intensity using ImageJ.

[4] = tested on: MCF-7 cells; test: Caspase-Glo 3/7 apoptosis assay; assay type: cell-based, human; settings: MCF-7, 10 nM
From the text: as §2
MCF-7 cells were seeded in 96-well plates to 80% confluency and treated with synthesized compounds at four concentrations (1 nM–1 μM) for 24 and 48 h. Cell apoptosis was analyzed using the Caspase-Glo 3/7 Assay System (Promega, G8090). Each sample was incubated with Caspase-Glo 3/7 solution for 1 h, followed by luminescence measurement. Luminescence was measured […] using the Synergy H1 Hybrid Multi-Mode Microplate Reader (Biotek, Agilent). Cell apoptosis was calculated as the percent increase in luminescence of treated cells compared to untreated controls. All experiments were performed in triplicate.

[5] = tested on: Bcl2 and FOXQ1 mRNA; test: mRNA RT-qPCR of Bcl2 and FOXQ1 in MCF-7 cells; assay type: cell-based, human; settings: MCF-7, concentrations ranging from 1 nM to 100 nM
Protocol: MCF-7 cells were seeded into 12-well plates (∼150,000 cells per well) at 60–70% confluency incubated for 12 h. The cells were then treated with different synthesized compounds at the indicated concentrations or with vehicle control for 24 and 48 h. After treatment, total RNA was extracted using the QuickRNA Miniprep Kit (Zymo Research) according to the manufacturer’s protocol, including DNase I treatment. Reverse transcription was performed on 1 μg of total RNA using the qScript cDNA Synthesis Kit (Quantabio) following the manufacturer’s instructions. Approximately 30 ng of cDNA were used for each qPCR reaction, which was carried out using the Luna Universal qPCR Master Mix (New England BioLabs, cat# E3010G) on a CFX Opus 384 Real-Time PCR System. Relative expression levels of Bcl-2 and FOXQ1 were calculated by normalizing to GAPDH expression using the ΔΔCt method.

[6] = tested on: Bcl2; test: Bcl2 protein expression by western blot in MCF-7 cells; assay type: cell-based, human; settings: MCF-7, 10 nM, 24 h
Protocol: as §3, §4

[7] = tested on: MCF-7 spheroids; test: 3D spheroid growth model, MCF-7; assay type: cell-based, human; settings: 10 nM
Protocol: as §1

[8] = tested on: MCF-7 cells; test: Crystal violet viability assay in MCF-7 cells; assay type: cell-based, human; settings: MCF-7, 10 nM and 10 μM, 48 h
From the text: as §2
[…] After treatment, the medium was removed, and cells were gently washed with PBS to remove any residual media. Cells were then fixed by adding 100 μL of 100% cold methanol and incubating for 10 min. The methanol was aspirated, and the cells were allowed to air-dry fully. The cells were stained with 50 μL of 0.1% crystal violet for 10 min, after which excess crystal violet was aspirated and the cells were washed with PBS. To quantify cell viability, 100 μL of 33% acetic acid was added to each well to solubilize the bound dye. […] was then measured at 590 nm using Synergy H1 Hybrid Multi-Mode Microplate Reader (Biotek, Agilent). […]

In the case of CCOC(=O)c1cc2cc(NC(=O)/C=C/C(=O)c3ccc(OC)cc3)ccc2[nH]1 [MG-HuR2], the spheroid growth [1] was “inhibited spheroid growth after 2 days”, the “cytotoxicity / viability in nontumorigenic cells” value [2] was “No significant cytotoxicity or change in viability” and the “reduction of Bcl2 protein expression” value [3] was 45%. The “apoptosis (caspase 3/7)” value [4] was “significant increase in apoptosis”, the “Bcl2 and FOXQ1 mRNA expression” value [5] was “decrease in the expression of both genes” and the “reduction of Bcl2 protein expression” value [6] was 88%. The spheroid growth [7] was “inhibited spheroid growth after 2 days” and the “cytotoxicity / cell viability (crystal violet)” value [8] was “exhibited cytotoxic activity”.
